In ChEMBL document CHEMBL1157058, “3D-QSAR studies on quinazoline antifolate thymidylate synthase inhibitors by CoMFA and CoMSIA models” (Eur J Med Chem, 2010):
pIC50: −log10 of the molar value.

Target: Thymidylate synthase (Homo sapiens, UniProt P04818)
Assay: Inhibition of thymidylate synthase

Chain of Thymidylate synthase (P04818 whole entry): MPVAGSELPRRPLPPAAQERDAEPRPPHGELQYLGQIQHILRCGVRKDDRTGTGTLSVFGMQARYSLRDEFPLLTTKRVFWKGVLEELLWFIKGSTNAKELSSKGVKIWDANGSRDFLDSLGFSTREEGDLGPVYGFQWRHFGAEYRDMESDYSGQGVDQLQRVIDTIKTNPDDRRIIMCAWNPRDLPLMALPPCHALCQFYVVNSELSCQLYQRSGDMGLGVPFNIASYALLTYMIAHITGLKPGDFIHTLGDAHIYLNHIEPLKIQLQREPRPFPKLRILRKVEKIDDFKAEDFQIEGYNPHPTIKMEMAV

Compound	pIC50
CCN(Cc1ccc2nc(C)[nH]c(=O)c2c1)c1ccc(C(=O)N[C@@H](CCC(=O)O)C(=O)O)c([N+](=O)[O-])c1	6.84
CCN(Cc1ccc2nc(C)[nH]c(=O)c2c1)c1ccc(C(=O)N[C@@H](CCC(=O)O)C(=O)O)c(N)c1	6.51
C#CCN(Cc1ccc2nc(C)[nH]c(=O)c2c1)c1ccc(C(=O)N[C@@H](CCC(=O)O)C(=O)O)c(C(F)(F)F)c1	6.32
Cc1nc2ccc(CN(CCO)c3ccc(C(=O)N[C@@H](CCC(=O)O)C(=O)O)cc3)cc2c(=O)[nH]1	6.30
C#CCN(Cc1ccc2nc(C)[nH]c(=O)c2c1)c1ccc(C(=O)N[C@@H](CCC(=O)O)C(=O)O)c(N)c1	6.54
CC(=O)CN(Cc1ccc2nc(C)[nH]c(=O)c2c1)c1ccc(C(=O)N[C@@H](CCC(=O)O)C(=O)O)cc1	4.60
Cc1nc2ccc(CN(CCN)c3ccc(C(=O)N[C@@H](CCC(=O)O)C(=O)O)c(F)c3)cc2c(=O)[nH]1	4.93
C#CCN(Cc1ccc2nc(N)[nH]c(=O)c2c1)c1ccc(C(=O)N[C@@H](CCC(=O)O)C(=O)O)c(F)c1	8.05
Cc1nc2ccc(CNc3ccc(C(=O)N[C@@H](CCC(=O)O)C(=O)O)cc3F)cc2c(=O)[nH]1	5.03
Cc1nc2ccc(CN(CCF)c3ccc(C(=O)N[C@@H](CCC(=O)O)C(=O)O)c(F)c3)cc2c(=O)[nH]1	7.37
Cc1nc2ccc(CNc3ccc(C(=O)N[C@@H](CCC(=O)O)C(=O)O)c(F)c3)cc2c(=O)[nH]1	5.42
Cc1nc2ccc(CN(CCO)c3ccc(C(=O)N[C@@H](CCC(=O)O)C(=O)O)cc3F)cc2c(=O)[nH]1	5.45
CN(Cc1ccc2nc(CF)[nH]c(=O)c2c1)c1ccc(C(=O)N[C@@H](CCC(=O)O)C(=O)O)cc1	5.54
Cc1nc2ccc(CN(CCCO)c3ccc(C(=O)N[C@@H](CCC(=O)O)C(=O)O)cc3F)cc2c(=O)[nH]1	6.01
COCCCN(Cc1ccc2nc(C)[nH]c(=O)c2c1)c1ccc(C(=O)N[C@@H](CCC(=O)O)C(=O)O)cc1	4.89
Cc1nc2ccc(CN(CCCO)c3ccc(C(=O)N[C@@H](CCC(=O)O)C(=O)O)cc3)cc2c(=O)[nH]1	6.27
Cc1nc2ccc(CN(CCF)c3ccc(C(=O)N[C@@H](CCC(=O)O)C(=O)O)cc3)cc2c(=O)[nH]1	6.62
Cc1nc2ccc(CN(CCCO)c3ccc(C(=O)N[C@@H](CCC(=O)O)C(=O)O)c(F)c3)cc2c(=O)[nH]1	6.23
CCN(Cc1ccc2nc(C)[nH]c(=O)c2c1)c1ccc(C(=O)N[C@@H](CCC(=O)O)C(=O)O)c(F)c1	7.35
CCN(Cc1ccc2nc(C)[nH]c(=O)c2c1)c1ccc(C(=O)N[C@@H](CCC(=O)O)C(=O)O)c(C)c1	6.50
C#CCN(Cc1ccc2nc(OC)[nH]c(=O)c2c1)c1ccc(C(=O)N[C@@H](CCC(=O)O)C(=O)O)c(F)c1	7.44
Cc1nc2ccc(CN(CCF)c3ccc(C(=O)N[C@@H](CCC(=O)O)C(=O)O)cc3F)cc2c(=O)[nH]1	5.76
C=CCN(Cc1ccc2nc(C)[nH]c(=O)c2c1)c1ccc(C(=O)N[C@@H](CCC(=O)O)C(=O)O)cc1F	5.29
Cc1nc2ccc(CN(CCS)c3ccc(C(=O)N[C@@H](CCC(=O)O)C(=O)O)cc3)cc2c(=O)[nH]1	5.75
CCN(Cc1ccc2nc(C)[nH]c(=O)c2c1)c1ccc(C(=O)N[C@@H](CCC(=O)O)C(=O)O)cc1F	6.17
Cc1nc2ccc(CN(CCO)c3ccc(C(=O)N[C@@H](CCC(=O)O)C(=O)O)c(F)c3)cc2c(=O)[nH]1	7.11

Compound	pIC50
CCc1nc2ccc(CNc3ccc(C(=O)N[C@@H](CCC(=O)O)C(=O)O)cc3)cc2c(=O)[nH]1	4.70
CCN(Cc1ccc2nc(C)[nH]c(=O)c2c1)c1ccc(C(=O)N[C@@H](CCC(=O)O)C(=O)O)c(OC)c1	6.72
Cc1nc2ccc(CN(C)c3ccc(C(=O)N[C@@H](CCC(=O)O)C(=O)O)c(N)c3)cc2c(=O)[nH]1	6.07
CCN(Cc1ccc2nc(C)[nH]c(=O)c2c1)c1ccc(C(=O)N[C@@H](CCC(=O)O)C(=O)O)c(Cl)c1	6.92
Cc1nc2ccc(CN(CCF)c3cnc(C(=O)N[C@@H](CCC(=O)O)C(=O)O)s3)cc2c(=O)[nH]1	6.72
Cc1nc2ccc(CN(CCO)c3cnc(C(=O)N[C@@H](CCC(=O)O)C(=O)O)s3)cc2c(=O)[nH]1	6.38
C#CCN(Cc1ccc2nc(C)[nH]c(=O)c2c1)c1ccc(C(=O)N[C@@H](CCC(=O)O)C(=O)O)s1	6.36
CCN(Cc1ccc2nc(C)[nH]c(=O)c2c1)c1ccc(C(=O)N[C@@H](CCC(=O)O)C(=O)O)s1	6.24
Cc1nc2ccc(CN(CCO)c3ccc(C(=O)N[C@@H](CCC(=O)O)C(=O)O)s3)cc2c(=O)[nH]1	5.92
Cc1nc2ccc(CN(CCCO)c3ccc(C(=O)N[C@@H](CCC(=O)O)C(=O)O)s3)cc2c(=O)[nH]1	5.47
Cc1nc2ccc(CN(CC#N)c3ccc(C(=O)N[C@@H](CCC(=O)O)C(=O)O)s3)cc2c(=O)[nH]1	5.51
C#CCN(Cc1ccc2nc(C)[nH]c(=O)c2c1)c1cnc(C(=O)N[C@@H](CCC(=O)O)C(=O)O)s1	6.64
Cc1nc2ccc(CN(CCF)c3ccc(C(=O)N[C@@H](CCC(=O)O)C(=O)O)s3)cc2c(=O)[nH]1	6.26
Cc1nc2ccc(CN(CCCO)c3cnc(C(=O)N[C@@H](CCC(=O)O)C(=O)O)s3)cc2c(=O)[nH]1	5.76
Cc1nc2ccc(CNc3cnc(C(=O)N[C@@H](CCC(=O)O)C(=O)O)s3)cc2c(=O)[nH]1	5.15
CCN(Cc1ccc2nc(C)[nH]c(=O)c2c1)c1ncc(C(=O)N[C@@H](CCC(=O)O)C(=O)O)s1	6.12
Cc1nc2ccc(CN(C)c3cnc(C(=O)N[C@@H](CCC(=O)O)C(=O)O)s3)cc2c(=O)[nH]1	6.38
CCN(Cc1ccc2nc(C)[nH]c(=O)c2c1)c1cnc(C(=O)N[C@@H](CCC(=O)O)C(=O)O)s1	6.64
CCN(Cc1ccc2nc(C)[nH]c(=O)c2c1)c1nnc(C(=O)N[C@@H](CCC(=O)O)C(=O)O)s1	6.03
CCCN(Cc1ccc2nc(C)[nH]c(=O)c2c1)c1ccc(C(=O)N[C@@H](CCC(=O)O)C(=O)O)s1	5.73
C=CCN(Cc1ccc2nc(C)[nH]c(=O)c2c1)c1ccc(C(=O)N[C@@H](CCC(=O)O)C(=O)O)s1	5.78
C=CCN(Cc1ccc2nc(C)[nH]c(=O)c2c1)c1cnc(C(=O)N[C@@H](CCC(=O)O)C(=O)O)s1	5.97
C#CCN(Cc1ccc2nc(C)[nH]c(=O)c2c1)c1ccc(C(=O)N[C@@H](CCC(=O)O)C(=O)O)c(F)c1	7.70
COCCN(Cc1ccc2nc(C)[nH]c(=O)c2c1)c1ccc(C(=O)N[C@@H](CCC(=O)O)C(=O)O)cc1	4.79
Cc1nc2ccc(CN(C)c3ccc(C(=O)N[C@@H](CCC(=O)O)C(=O)O)cn3)cc2c(=O)[nH]1	5.37
C#CCN(Cc1ccc2nc(C)[nH]c(=O)c2c1)c1ccc(C(=O)N[C@@H](CCC(=O)O)C(=O)O)nc1	7.40

Compound	pIC50
Cc1nc2ccc(CN(C)c3ccc(C(=O)N[C@@H](CCC(=O)O)C(=O)O)nc3)cc2c(=O)[nH]1	6.46
C#CCN(Cc1ccc2nc(C)[nH]c(=O)c2c1)c1ccc(C(=O)N[C@@H](CCC(=O)O)C(=O)O)cc1F	5.84
Cc1nc2ccc(CN(C)c3ccc(C(=O)N[C@@H](CCC(=O)O)C(=O)O)c(F)c3)cc2c(=O)[nH]1	6.92
Cc1nc2ccc(CN(CCBr)c3ccc(C(=O)N[C@@H](CCC(=O)O)C(=O)O)cc3)cc2c(=O)[nH]1	5.89
Cc1nc2ccc(CN(CC(N)=O)c3ccc(C(=O)N[C@@H](CCC(=O)O)C(=O)O)c(F)c3)cc2c(=O)[nH]1	5.87
C=CCN(Cc1ccc2nc(C)[nH]c(=O)c2c1)c1ccc(C(=O)N[C@@H](CCC(=O)O)C(=O)O)c(F)c1	7.12
C#CCN(Cc1ccc2nc(C)[nH]c(=O)c2c1)c1ccc(C(=O)N[C@@H](CCC(=O)O)C(=O)O)c([N+](=O)[O-])c1	6.89
Cc1nc2ccc(CN(C)c3ccc(C(=O)N[C@@H](CCC(=O)O)C(=O)O)c(C)c3)cc2c(=O)[nH]1	6.03
C#CCN(Cc1ccc2nc(C)[nH]c(=O)c2c1)c1ccc(C(=O)N[C@@H](CCC(=O)O)C(=O)O)c(O)c1	7.05
Cc1nc2ccc(CN(CC#N)c3ccc(C(=O)N[C@@H](CCC(=O)O)C(=O)O)c(F)c3)cc2c(=O)[nH]1	6.77
C#CCN(Cc1ccc2nc(C)[nH]c(=O)c2c1)c1ccc(C(=O)N[C@@H](CCC(=O)O)C(=O)O)c(C)c1	6.30
C#CCN(Cc1ccc2nc(C)[nH]c(=O)c2c1)c1ccc(C(=O)N[C@@H](CCC(=O)O)C(=O)O)c(OC)c1	7.17
C#CCN(Cc1ccc2nc(C)[nH]c(=O)c2c1)c1ccc(C(=O)N[C@@H](CCC(=O)O)C(=O)O)c(Cl)c1	7.13
C=CCN(Cc1ccc2nc(C)[nH]c(=O)c2c1)c1ccc(C(=O)N[C@@H](CCC(=O)O)C(=O)O)cc1	6.32
Cc1nc2ccc(CN(C)c3cnc(C(=O)N[C@@H](CCC(=O)O)C(=O)O)nc3)cc2c(=O)[nH]1	5.63
Cc1nc2ccc(CN(C)c3ccc(C(=O)N[C@@H](CCC(=O)O)C(=O)O)cc3)cc2c(=O)[nH]1	6.52
C=CCN(Cc1ccc2nc(C)[nH]c(=O)c2c1)c1ccc(C(=O)N[C@@H](CCC(=O)O)C(=O)O)nc1	6.12
Cc1nc2ccc(CN(CCF)c3ccc(C(=O)N[C@@H](CCC(=O)O)C(=O)O)nc3)cc2c(=O)[nH]1	6.80
C#CCN(Cc1ccc2nc[nH]c(=O)c2c1)c1ccc(C(=O)N[C@@H](CCC(=O)O)C(=O)O)c(F)c1	7.24
CCN(Cc1ccc2nc(C)[nH]c(=O)c2c1)c1ccc(C(=O)N[C@@H](CCC(=O)O)C(=O)O)nc1	6.82
CCN(Cc1ccc2nc(C)[nH]c(=O)c2c1)c1ccc(C(=O)N[C@@H](CCC(=O)O)C(=O)O)cc1	6.77
Cc1nc2ccc(CNc3ccc(C(=O)N[C@@H](CCC(=O)O)C(=O)O)s3)cc2c(=O)[nH]1	4.61
Cc1nc2ccc(CNc3ccc(C(=O)N[C@@H](CCC(=O)O)C(=O)O)cc3)cc2c(=O)[nH]1	5.35
Cc1nc2ccc(CN(C)c3ccc(C(=O)N[C@@H](CCC(=O)O)C(=O)O)cc3F)cc2c(=O)[nH]1	5.94
